We go through five molecules from publication PMC10878086, “An RNA replicon system to investigate promising inhibitors of feline coronavirus” (Journal of Virology, 2024).

Where “and” joins values, the source holds several entries; their conditions need not be identical. Identical values can stand only once. Entries after “also recorded” stand apart in the source; their conditions may differ. Counter-ions that a name gives are not always drawn. Like-named read-outs stand apart in the source and are kept apart here.

In data set [1] the test system is serotype I FCoV replicon RNA in BHK-F-Rep cells. As to the kind of experiment: microbe, parasite or virus in culture. It counts as cell-based, feline coronavirus (serotype I FECV field strain). The conditions noted are these: for IC50: BHK-F-Rep cells, median GFP intensity. The protocol:
The BHK-F-Rep cells would specifically allow the evaluation of inhibitors that target viral replication, which includes basic processes such as RNA synthesis and viral polyprotein processing. […] GFP expression was assessed by flow cytometry. […] In addition to GFP detection, immunofluorescence staining of the N-protein was performed as a control of the replication inhibition in an inhibitor experiment (Fig. 2D).
For each inhibitor test, the BHK-F-Rep was cultured in T75 or T150 flasks, washed once with PBS, cells detached with Gibco TrypLE Express (Trypsin; Thermo Fisher Scientific), and then seeded in 12-well plates (25,000 cells/well) in 1 mL/well of cell-culture medium (MEM +10% FBS +50 U/mL Pen/Strep). Directly after seeding, the inhibitor was added to the cells. The plates were incubated for 96 hours at 37°C with 5% CO2.
To assess the GFP expression in BHK and Fcwf-4 cells, the supernatant was removed, the cells were washed once with PBS and then detached with trypsin and transferred to a 96-well plate. The plate was centrifuged at 1,700 rpm for 5 minutes and the supernatant discarded. Cells were once washed again with PBS and again centrifuged at 1,700 rpm for 5 minutes and the supernatant was discarded. For the replicon conditions, the cells were then stained with the LIVE/DEAD Fixable Aqua Dead Cell Stain Kit for 405 nm excitation (Invitrogen) according to the manufacturer’s instructions. As the dead cell control, one of the samples was placed at 60°C for 20 minutes and then stained. After staining, the cells were washed with PBS and centrifuged (1,700 rpm for 5 minutes), and the supernatant was discarded. For the Fcwf-4 cells infected with the recFCoV-GFP, the staining and washing step was not performed. Then, all the cells were washed with PBS before being resuspended in 200 µL PBS and transferred to Falcon 5 mL round-bottom tubes with cell strainer cap (Corning Incorporated) and kept in the dark on ice. Samples were acquired in Cytek Aurora with SpectroFlo Software Version 3.1.0 and analyzed using FlowJo software (FlowJo_v108.1).
Instead, to monitor inhibition, we determined the percent of GFP-positive cells. In either case, the median intensity of the GFP signal or the percentage of GFP-positive cells was normalized to the measurements of untreated conditions, by defining the untreated results of each triplicate as 100%. The value was then subtracted by 100 to get the value representing the percentage of inhibition.
All conditions were tested in triplicates on three different days always including a negative control. Statistical analysis and generation of graphs were performed using GraphPad Prism version 9.3.1 for Windows. The same as CC50, 50% inhibitory concentration (IC50) was determined in GraphPad Prism version 9.3.1 for Windows.

Data set [2] is described as follows: In vitro cytotoxicity assay (CytoTox-Glo) on BHK-F-Rep cells. It counts as cell-based, hamster. The conditions noted are these: hamster. The protocol: (§1) To define cytotoxic concentrations of the individual inhibitors, cytotoxicity assay with the CytoTox-Glo Cytotoxicity Assay (Promega) was performed according to the manufacturer’s instructions. As a positive control, 75 µg/well of cycloheximide was used. The inhibitors were diluted in DMSO to concentrations so that 2 µL/well could be added to reach the tested concentrations. For luminescence detection, a Hidex Sense with the HidexPlateReader Software 1.0.0 was used. Detection parameters were set for luminescence detection with an infrared cutoff of 1 second. As described by Promega, the difference of viable vs dead cells was calculated in Microsoft Excel 2016, and 50% of cytotoxic concentration (CC50) was determined in GraphPad Prism version 9.3.1 for Windows. The data were fitted to a nonlinear regression curve with log(inhibitor) vs normalized response with variable slope.

The subject of a further data set is BHK-F-Rep cells. Described as above. It counts as cell-based, hamster. The protocol:
as §1

In data set [3] the test system is recFCoV-GFP (serotype I FIPV strain Black). Kind of data set: Inhibitor test with recFCoV-GFP-infected Fcwf-4 cells, viral titers in supernatant (TCID50). The conditions noted are these: read-out: IC50 recFCoV-GFP viral titers. It counts as cell-based, feline infectious peritonitis virus. An excerpt: (§2) Finally, we assessed GC376 and Remdesivir individually or in combination in a virus infection system. We used the previously described recombinant recFCoV-GFP that is based on the laboratory-adapted serotype I FIPV strain Black and contains the GFP gene as a replacement for the accessory genes 3a–c ([39]). Using this virus, we could measure inhibition by assessing GFP expression or by virus titration. However, the assessment of GFP expression by measuring the median fluorescent intensity, as we did for BHK-F-rep cells, was not possible since recFCoV-GFP-infected Felis catus whole fetus 4 (Fcwf-4) cells died before the reduction of GFP expression was observable. Instead, we determined the number of GFP-positive cells to monitor inhibition (Fig. 5A through C). In parallel, we determined the virus titers released into the cell culture supernatant from inhibitor-treated and infected cells (Fig. 5A through C). […] The results are shown in Fig. 5C and can be compared with Fig. 4A (BHK-F-Rep inhibition) and IC50 values for the different experimental systems are shown in Table 2. […]
All conditions were tested in triplicates on three different days always including a negative control. […] The selectivity index (SI) was calculated in Microsoft Excel 2016 as follows: SI = CC50/IC50.

Data set [4] shares this test system. As to the kind of experiment: Inhibitor test with recFCoV-GFP-infected Fcwf-4 cells, flow cytometry of GFP-positive cells. It counts as cell-based, feline infectious peritonitis virus. Particulars: read-out: IC50 recFCoV-GFP flow cytometry.
From the text: as §2
To assess the GFP expression in BHK and Fcwf-4 cells, the supernatant was removed, the cells were washed once with PBS and then detached with trypsin and transferred to a 96-well plate. […] Samples were acquired in Cytek Aurora with SpectroFlo Software Version 3.1.0 and analyzed using FlowJo software (FlowJo_v108.1). […]

Data set [5] can be described thus: Cell viability testing in recFCoV-GFP infected Fcwf-4 cells. It counts as cell-based. Particulars: cat (Felis catus).
From the text: Read-out as with the BHK-F-Rep cells done via flow cytometry and detection of GFP-positive cells (relative Inhibition) including IC50 values are shown in black with the left y-axis. As with the BHK-F-Rep cells, data shown on cell viability testing in the recFCoV-GFP infected Fcwf-4 cells are shown in black with the right y-axis including CC50 values. Additional data on viral titers of the recFCoV-GFP infected Fcwf-4 cells treated with the inhibitors and corresponding IC50 values are shown in red. The black and red lines in the graphs represent the mean value of the data collected from three independent experiments of individual drugs or their combination, respectively. The gray and red shaded areas represent the standard error of the mean.
To define cytotoxic concentrations of the individual inhibitors, cytotoxicity assay with the CytoTox-Glo Cytotoxicity Assay (Promega) was performed according to the manufacturer’s instructions. As a positive control, 75 µg/well of cycloheximide was used. […] For luminescence detection, a Hidex Sense with the HidexPlateReader Software 1.0.0 was used. Detection parameters were set for luminescence detection with an infrared cutoff of 1 second. As described by Promega, the difference of viable vs dead cells was calculated in Microsoft Excel 2016, and 50% of cytotoxic concentration (CC50) was determined in GraphPad Prism version 9.3.1 for Windows. […]
Where [6] appears, read: Alphacoronavirus 1, 96 h, 96 hours, flow cytometry.

A word on the IC50: it is the concentration at which inhibition is half-maximal. For orientation: CC50 means the concentration that lowers cell viability or growth by half. A higher CC50 goes with lower toxicity to the cells. On to `CCN(CC)Cc1cc(Nc2ccnc3cc(Cl)ccc23)ccc1O` [Amodiaquine, Amodiaquine dihydrochloride], for which, in data set [1] (96 hours, flow cytometry, in words), the “inhibitory effect on BHK-F-Rep cells” value is listed as “did not observe an inhibitory effect; also recorded: did not show any inhibitory effect”. This molecule also returned an IC50 in data set [1] (setting [6]) above 40000 nM. This molecule registered a CC50 in data set [2] of 47200 nM.
Take `CC(C)C[C@H](NC(=O)OCc1ccccc1)C(=O)N[C@@H](CC1CCNC1=O)C(O)S(=O)(=O)O` (stereo partly drawn) [GC376]: the IC50 in data set [1] (96 hours, flow cytometry, read-out: IC50) is < 1000 nM and 990 nM; in data set [3] (Fcwf-4 cells, MOI 0.01, 48 hours, TCID50 of supernatant), 1010 nM; in data set [4] (Fcwf-4 cells, MOI 0.01, 48 hours, GFP-positive cells), 840 nM. This molecule displayed a CC50 with BHK-F-Rep cells above 200000 nM.
Consider `CC(C)C[C@H](NC(=O)OCc1ccccc1)C(=O)N[C@@H](C[C@@H]1CCNC1=O)C(O)S(=O)(=O)[O-].[Na+]` (stereo partly drawn) [GC376], for which the “GFP expression of BHK-F-Rep cells after treatment (replicon-cured cell line)” value in data set [1] (two consecutive treatments of 96 hours with 20 µM) is on record as “undetectable”.
In the case of `CC(C)(C)[C@H](NC(=O)C(F)(F)F)C(=O)N1C[C@H]2[C@@H]([C@H]1C(=O)N[C@H](C#N)C[C@@H]1CCNC1=O)C2(C)C` [Nirmatrelvir], the IC50 is below 1000 nM in data set [1] (setting [6]) and 780 nM in data set [1] (96 hours, flow cytometry). Further, in data set [2], the half-maximal cytotoxic concentration (CC50) is above 200000 nM.
`CCC(CC)COC(=O)[C@H](C)N[P@](=O)(OC[C@H]1O[C@@](C#N)(c2ccc3c(N)ncnn23)[C@H](O)[C@@H]1O)Oc1ccccc1` [Remdesivir] showed a CC50 in data set [2] of 99100 nM. Also, the IC50 in data set [3] (Alphacoronavirus 1, 48 h) is 1500 nM; in data set [4] (Alphacoronavirus 1, 48 h), 1150 nM. In data set [5], the CC50 at 48 h was above 200000 nM.
